Measurements taken from paper PMC12633732, “Dynamics of release and activity of select neuropeptides post-bloodmeal in the female mosquito, Aedes aegypti” (The Journal of Experimental Biology, 2025).
Like-named read-outs stand apart in the source and are kept apart here. Bridge positions count the residues as written; N and C are the ends. Square brackets hold non-standard residues; d marks the D form. Ends that are not written are not given here. Peptide text beside a SMILES is read from it. pGlu = O=C1CC[C@@H](C(=O)O)N1

How the values were obtained:
[1] = system: Malpighian tubules (MTs) of adult female A. aegypti; parameters: species or system Aedes aegypti; details: for Effect of single diuretic on fluid secretion: 25 nmol l^−1 DH31, 100 nmol l^−1 5HT, 10 nmol l^−1 DH44, 50 nmol l^−1 CDP, 60 min, Fig. 5A
Experimental: In order to determine fluid secretion rates, modified Ramsay assays were performed as described previously ([Lajevardi et al., 2021]; [Sajadi et al., 2018]). Female adults (4–7 days old) were dissected under physiological Aedes saline adapted from [Petzel et al. (1987)] that contained (in mmol l^−1): 150 NaCl, 25 Hepes, 3.4 KCl, 7.5 NaOH, 1.8 NaHCO3, 1 MgSO4, 1.7 CaCl2 and 5 glucose, and titrated to pH 7.1. Individual MTs were removed and placed in a Sylgard-lined Petri dish containing 20 µl bathing droplets [1:1 mixture of Schneider's Insect Medium (Sigma-Aldrich, Oakville, ON, Canada): Aedes saline], immersed in hydrated mineral oil to prevent evaporation. The proximal end of each tubule was wrapped around a minutien pin to allow for fluid secretion measurements. Dose response analysis for AedaeDH31 was determined by using concentrations ranging from 10^−5 to 10^−12 mol l^−1 on unstimulated MTs. To investigate the effects of collected haemolymph samples on fluid secretion rate, haemolymph samples from both non-blood-fed and blood-fed females were used against unstimulated MTs and allowed to incubate for 60 min before measurement of secreted fluid droplets. To investigate potential additive or synergistic activity, dosages of 25 nmol l^−1 AedaeDH31, 10 nmol l^−1 Rhodnius prolixus DH (CRF-related peptide, DH44), 50 nmol l^−1 CDP, 100 nmol l^−1 5HT, and 1 fmol l^−1 AedaeCAPA-1 were used ([Sajadi et al., 2018], [2020]).

[2] = biological target: T1, Aedaekinin-R (Aedes aegypti, UniProt Q5EY37); experiment: Heterologous receptor functional activation bioluminescence assay, Aedaekinin-R; type: cell-based
T1 sequence (Q5EY37 1-584): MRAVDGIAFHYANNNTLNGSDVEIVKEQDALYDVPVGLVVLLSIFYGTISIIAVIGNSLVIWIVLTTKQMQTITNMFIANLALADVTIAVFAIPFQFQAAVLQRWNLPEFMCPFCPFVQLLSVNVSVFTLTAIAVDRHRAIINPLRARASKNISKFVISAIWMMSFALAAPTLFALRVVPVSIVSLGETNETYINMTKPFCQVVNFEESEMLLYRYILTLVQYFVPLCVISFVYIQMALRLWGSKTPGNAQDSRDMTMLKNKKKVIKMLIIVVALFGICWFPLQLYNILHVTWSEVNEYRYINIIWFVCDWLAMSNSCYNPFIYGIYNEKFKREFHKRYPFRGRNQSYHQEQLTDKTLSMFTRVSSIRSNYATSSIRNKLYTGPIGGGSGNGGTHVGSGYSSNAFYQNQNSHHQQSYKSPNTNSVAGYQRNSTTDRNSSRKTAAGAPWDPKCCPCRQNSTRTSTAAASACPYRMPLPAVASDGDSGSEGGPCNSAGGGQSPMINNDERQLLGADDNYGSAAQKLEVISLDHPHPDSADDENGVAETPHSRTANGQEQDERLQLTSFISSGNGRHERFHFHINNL
Description: (§1) Gene-specific primers were designed to amplify the open reading frame of the AedaeDH31 receptor and Aedaekinin receptor based on previously published sequences [GenBank accession numbers: DH31-R, AAGE02017873 ([Kwon et al., 2012]); kinin-R, AY596453.1 ([Lu et al., 2011]); see Table 1]. The amplified PCR products were purified using a Monarch PCR purification kit (New England Biolabs, Whitby, ON, Canada) and reamplified using modified primers containing restriction sites for subsequent directional cloning in mammalian expression plasmids. Products were A-tailed and cloned into a pGEM-T Easy vector (Promega, Madison, WI, USA) or pCE2 TA/Blunt-Zero vector (GeneBio Systems, Burlington, ON, Canada) and then transformed into 5-alpha high efficiency competent E. coli (New England Biolabs, Whitby, ON, Canada). Base accuracy of purified plasmid DNA miniprep was confirmed by Sanger sequencing (The Centre for Applied Genomics, Sick Kids, Toronto, ON, Canada). The receptor constructs DH31-R and kinin-R were excised using standard restriction enzyme digestion and subcloned into the mammalian expression vectors, pBudCE4.1 Gα15 or pcDNA3.1^+ (Life Technologies, Burlington, ON, Canada), with the former containing a mammalian promiscuous G protein (Gα15), which facilitates coupling of a wide variety of GPCRs to calcium signaling ([Wahedi et al., 2019]). The previously characterized A. aegypti CAPA receptor inserted into pcDNA3.1^+ ([Sajadi et al., 2020]) was also used for transfection of mammalian cells. Plasmid DNA was purified from overnight bacterial cultures using the ZymoPURE II Plasmid Midiprep Kit (Zymo Research, Tustin, CA, USA) following manufacturer guidelines. These three heterologously expressed receptors were used to determine the timing of release and quantify the levels in the haemolymph of CAPA (both CAPA-1 and CAPA-2), DH31 along with kinin neuropeptides in association with blood feeding by adult female mosquitoes.
(§2) Functional activation of the AedaeDH31-R, AedaeCAPA-R, and Aedaekinin-R was assayed using a previously established recombinant Chinese hamster ovary (CHO)-K1 cell line stably expressing aequorin, referred to henceforth as CHO-K1-aeq cells ([Paluzzi et al., 2012a]; [Wahedi and Paluzzi, 2018]). […] Cells were grown and maintained in Dulbecco's modified eagles medium:nutrient F12 (DMEM:F12; 1:1) medium containing 10% heat-inactivated fetal bovine serum (FBS; Wisent, St. Bruno, QC, Canada), 1× antimycotic-antibiotic and 200 µg ml^−1 geneticin (G418 Sulfate). […] Approximately 48 h post-transfection, cells were dislodged from the culture flasks using 5 mmol l^−1 ethylenediaminetetraacetic acid (EDTA; Life Technologies, Burlington, ON, Canada) in DPBS and cells were resuspended in BSA medium (DMEM-F12 medium containing 0.1% bovine serum albumin, 1X antimycotic-antibiotic) at a concentration of 10^6–10^7 cells ml^−1 quantified using a Countess II FL cell counter (Thermo Fisher Scientific, Burlington, ON, Canada). Coelenterazine h (Promega, Madison, WI, USA) was added to the cells to a final concentration of 5 µmol l^−1 and incubated for 3 h, as described previously ([Oryan et al., 2018]) and subsequently, diluted 10-fold in BSA medium and incubated for an additional hour at room temperature. To measure in vivo circulating levels of DH31, kinin and CAPA in female mosquitoes, diluted haemolymph samples collected in 70 µl DPBS droplets (see section 3.2) were loaded in duplicates into 96-well white luminescence plates (Greiner Bio-One, Germany).

[3] = biological target: AedaeDH31-R; experiment: Heterologous receptor functional activation bioluminescence assay, AedaeDH31-R; type: cell-based, Aedes aegypti; details: for EC50: CHO-K1-aeq cells transiently expressing AedaeDH31-R (pBudCE4.1 Gα15), aequorin luminescence over 20 s, peptides tested up to 10 µmol l^−1, read-out: EC50 on DH31-R
Description: as §1, §2

[4] = biological target: T2, AedaeCAPA-R (Aedes aegypti, UniProt A0A7D5D2Z2); experiment: cell-based
T2 sequence (A0A7D5D2Z2 1-712): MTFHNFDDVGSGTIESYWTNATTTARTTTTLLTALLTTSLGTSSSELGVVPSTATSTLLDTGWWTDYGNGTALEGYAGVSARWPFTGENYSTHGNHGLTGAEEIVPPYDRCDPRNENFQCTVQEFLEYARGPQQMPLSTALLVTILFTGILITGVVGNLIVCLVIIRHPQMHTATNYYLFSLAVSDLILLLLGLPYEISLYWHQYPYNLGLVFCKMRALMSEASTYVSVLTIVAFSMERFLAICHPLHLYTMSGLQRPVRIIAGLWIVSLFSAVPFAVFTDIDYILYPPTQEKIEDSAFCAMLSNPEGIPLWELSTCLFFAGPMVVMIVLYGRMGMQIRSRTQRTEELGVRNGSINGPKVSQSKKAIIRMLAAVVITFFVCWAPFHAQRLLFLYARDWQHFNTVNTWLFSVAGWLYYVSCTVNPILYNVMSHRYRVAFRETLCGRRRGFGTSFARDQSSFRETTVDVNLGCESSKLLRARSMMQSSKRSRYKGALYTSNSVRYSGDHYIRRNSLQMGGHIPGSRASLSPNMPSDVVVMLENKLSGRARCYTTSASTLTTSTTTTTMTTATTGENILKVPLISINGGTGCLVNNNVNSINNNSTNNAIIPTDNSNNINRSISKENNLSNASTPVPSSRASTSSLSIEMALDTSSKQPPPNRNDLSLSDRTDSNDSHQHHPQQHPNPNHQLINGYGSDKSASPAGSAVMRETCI
Description: Gene-specific primers were designed to amplify the open reading frame of the AedaeDH31 receptor and Aedaekinin receptor based on previously published sequences [GenBank accession numbers: DH31-R, AAGE02017873 ([Kwon et al., 2012]); kinin-R, AY596453.1 ([Lu et al., 2011]); see Table 1]. The amplified PCR products were purified using a Monarch PCR purification kit (New England Biolabs, Whitby, ON, Canada) and reamplified using modified primers containing restriction sites for subsequent directional cloning in mammalian expression plasmids. […] These three heterologously expressed receptors were used to determine the timing of release and quantify the levels in the haemolymph of CAPA (both CAPA-1 and CAPA-2), DH31 along with kinin neuropeptides in association with blood feeding by adult female mosquitoes.
Functional activation of the AedaeDH31-R, AedaeCAPA-R, and Aedaekinin-R was assayed using a previously established recombinant Chinese hamster ovary (CHO)-K1 cell line stably expressing aequorin, referred to henceforth as CHO-K1-aeq cells ([Paluzzi et al., 2012a]; [Wahedi and Paluzzi, 2018]). […] To measure in vivo circulating levels of DH31, kinin and CAPA in female mosquitoes, diluted haemolymph samples collected in 70 µl DPBS droplets (see section 3.2) were loaded in duplicates into 96-well white luminescence plates (Greiner Bio-One, Germany).

[5] = CHO-K1-aeq cells transiently expressing Aedaekinin-R (pcDNA3.1+), aequorin luminescence over 20 s, peptides tested up to 10 µmol l^−1, read-out: EC50 on kinin-R

| Compound | EC50 [3] | EC50 [2, 5] | further results |
| --- | --- | --- | --- |
| NCCc1c[nH]c2ccc(O)cc12 [5HT, 5-hydroxytryptamine] | – | – | Effect of single diuretic on fluid secretion [1]: significantly increased fluid secretion |
| CC(C)[C@H](NC(=O)[C@@H]1CCC(=O)N1)C(=O)N[C@H](C(=O)N[C@@H](Cc1ccccc1)C(=O)N[C@@H](CO)C(=O)N[C@@H](CCCNC(=N)N)C(=O)N[C@@H](CC(=O)O)C(=O)N[C@@H](Cc1c[nH]c2ccccc12)C(=O)N[C@@H](CC(N)=O)C(=O)N[C@@H](C)C(N)=O)[C@@H](C)O [ACP] ([pGlu]VTFSRDWNA-NH2) | > 10 µM | – | EC50 [2]: > 10 µM |
| CC(C)C[C@H](NC(=O)[C@@H]1CCC(=O)N1)C(=O)N[C@H](C(=O)N[C@@H](Cc1ccccc1)C(=O)N[C@H](C(=O)N1CCC[C@H]1C(=O)N[C@@H](CO)C(=O)N[C@@H](Cc1c[nH]c2ccccc12)C(N)=O)[C@@H](C)O)[C@@H](C)O [AKH] ([pGlu]LTFTPSW-NH2) | > 10 µM | – | EC50 [2]: > 10 µM |
| CC(C)C[C@@H]1NC(=O)[C@@H](NC(=O)CNC(=O)CNC(=O)[C@@H](N)CCCCN)CSSC[C@@H](C(=O)N[C@@H](Cc2c[nH]c3ccccc23)C(=O)NCC(=O)NCC(=O)N[C@@H](Cc2c[nH]cn2)C(N)=O)NC(=O)[C@H](CO)NC(=O)[C@H](Cc2c[nH]cn2)NC(=O)CNC(=O)[C@H](Cc2ccc(O)cc2)NC(=O)[C@H](CO)NC1=O [CCHa1] (H-KGGCLSYGHSCWGGH-NH2; disulfide 4-11 (inferred); N-terminus assumed) | > 10 µM | – | – |
| C[C@@H]1NC(=O)[C@H](C)NC(=O)[C@@H](NC(=O)CN)CSSC[C@@H](C(=O)N[C@@H](Cc2ccc(O)cc2)C(=O)NCC(=O)NCC(=O)N[C@@H](Cc2c[nH]cn2)C(N)=O)NC(=O)[C@H](C)NC(=O)[C@H](Cc2c[nH]cn2)NC(=O)CNC(=O)[C@H](Cc2ccccc2)NC1=O [CCHa2] (H-GCAAFGHACYGGH-NH2; disulfide 2-9 (inferred); N-terminus assumed) | > 10 µM | – | – |
| CSCC[C@H](NC(=O)[C@H](CC(N)=O)NC(=O)[C@@H]1CSSC[C@H](NC(=O)[C@H](CC(C)C)NC(=O)[C@H](CO)NC(=O)[C@H](CCSC)NC(=O)[C@@H](N)Cc2ccc(O)cc2)C(=O)N[C@@H](Cc2c[nH]cn2)C(=O)N[C@@H](Cc2ccccc2)C(=O)N[C@@H](CCCCN)C(=O)N[C@@H](CC(C)C)C(=O)N1)C(N)=O [CNMa] (H-YMSLCHFKLCNM-NH2; disulfide 5-10 (inferred); N-terminus assumed) | > 10 µM | – | – |
| AGNSGANSGMWFGPRL-NH2 [PK1] | > 10 µM | > 10 µM | – |
| GPTVGLFAFPRV-NH2 [CAPA1] | – | > 10 µM | EC50 [4]: 0.00183 µM |
| MQRPQGPSLSVANPIEVLRSRLLLEIARRRMKEQDASRVSKNRQYLQQI-NH2 [DH44] | > 10 µM | > 10 µM | Luminescence response over background on AedaeDH31-R ([3]; 10^−6 mol l^−1 dose, Fig. 1B, n=3): no detectable activity; Effect of single diuretic on fluid secretion [1]: significantly increased fluid secretion |
| NPFHSWG-NH2 [CDP] | – | 0.0115 µM | – |
| PVFFVASRY-NH2 [RYa-1] | > 10 µM | > 10 µM | – |
| TVDFGLSRGYSGAQEAKHRMAMAVANFAGGP-NH2 [DH31] | – | > 10 µM | EC50 [1]: 0.0136 µM |
